Values joined by “and” are separate entries in the source; they are usually repeats but may differ in a detail not shown here. Equal values may be shown once. Where a name gives a salt, the structure may show the parent alone. Read-outs that look alike come from different tables or passages of the source. One block for each molecule: values may come before it.
Tests used:
eosinophil infiltration [1] = assay: Eosinophil accumulation model in the rat (Compound 48/80 injected into pleural cavities); assay type: in vivo, male Sprague Dawley rats; settings: 50 mg/kg 2 days, s.c., b.i.d. at 0 and 8 hours
Description: The compounds of the present invention may also be further characterized in other in vivo assays, such as the eosioophil accumulation model tested in the rat. Fifty μg of Compound 48/80 was injected into the pleural cavities of male Sprague Dawley rats. After 24 hrs, each cavity was washed twice with Hank's Balanced Salt Solution containing 0.2% EDTA. Total cell and eosinophil counts were determined. Test compounds were given intraveneously, orally or subcutaneously, b.i.d. at 0 and 8 hours.

eosinophil infiltration [2] = assay: Murine model of Ascaris-induced bronchial inflammation: eosinophil infiltration into bronchoalveolar lavage fluid; assay type: in vivo; settings: mouse
Description: The VLA-4 inhibitors may be further characterized in in vivo assays. One such assay examines the inhibition of eosinophil infiltration into the bronchoalveolar lavage fluid in the mouse (murine) model. In this assay, the animals are treated with cyclophosphamide on day 0. On days 2 and 14, the animals are immunized intraperitoneally with Ascaris suum extract. Seven days later, the animals are treated with various doses of the VLA-4 inhibitor. Shortly after drug administration, the animals are challenged with Ascaris suum extract by instillation into the trachea. Bronchoalveolar lavage of the animal is performed by instilling saline into the lung, 48 hours later. Total cell and eosinophil counts in the lavage are determined.

[3] = Mouse bio-assay: serum concentration after oral dosing, determined by direct binding assay of diluted serum; settings: female, Balb/c, serum, po
Description: A compound was dissolved or suspended with an appropriate solvent at 1 mg/mL. Female Balb/c mice (7–9 weeks old) were given the compound orally. Blood samples were collected from the postcaval vein of the anesthetized mice after fifteen minutes. Serum was prepared and stored at −20° C. Serum concentration of the compound was determined from inhibitory activities of the diluted serum by a direct binding assay using VLA-4-expressing cells and VCAM-IgG fusion protein. Serum concentration determined by this method correlated well with the concentration determined by LC/MS/MS methodologies.

[4] = Pharmacokinetic evaluation in rat; assay type: in vivo; settings: for AUC (total area under the plasma concentration versus time curve): LC/MS/MS; for clearance / MRT: plasma, 10 mg/kg; for clearance: read-out: CL (apparent plasma clearance); for MRT: read-out: MRT (mean residence time)
in vivo = settings: monkey, serum, intravenous, 2 mg/kg
[5] = iv, 10 mg/kg (i.v.), line of AUC 0–6 hr
[6] = iv, 10 mg/kg (i.v.), line of AUC 0–∞

Molecule: O=C(Nc1ccccc1Cl)Nc1ccc(CC(=O)N2C[C@@H](F)C[C@H]2COc2ccc(C(=O)O)cc2)cc1Br [Compound 95, 4-[1-[3-bromo-4-[N′-(2-chlorophenyl)ureido]phenylacetyl]-(4S)-fluoro-(2S)-pyrrolindinyl]methoxybenzoic acid]
% Inhibition of Eosinophil Infiltration (eosinophil infiltration [1]): 40.9%

Molecule: 4-(N′-2-methylphenylurea)phenylacetyl-LDVP-OH [reference compound]
% Inhibition of Eosinophil Infiltration (eosinophil infiltration [2]; oral dosage of 50 mg/kg): −2%

Molecule: COc1cc(CC(=O)N2CCC[C@H]2COc2ccc(C(=O)O)cc2)ccc1NC(=O)Nc1ccccc1Cl [Compound 58, 4-[1-[4-[N′-(2-chlorophenyl)ureido]-3-methoxylphenylacetyl]-(2S)-pyrrolindinyl]methoxybenzoic acid]
concentration at 30 min ([3]; 50 mg/kg): 3.61 µg/mL

Molecule: Cc1cc(CC(=O)N2C[C@@H](F)C[C@H]2COc2ccc(C(=O)O)cc2)ccc1NC(=O)Nc1ccccc1Cl [Compound 79, 4-[1-[4-[N′-(2-chlorophenyl)ureido]-3-methylphenylacetyl]-(4S)-fluoro-(2S)-pyrrolidinyl]methoxybenzoic acid]
% Inhibition of Eosinophil Infiltration (eosinophil infiltration [2]; 30 mg/kg b.i.d. × 2 days, i.v.): 35.9%
AUC (total area under the plasma concentration versus time curve) ([4]; 10 mg/kg (i.v.), 0–6 hr): 5259 (0–6 hr) ng · h/mL
AUC (total area under the plasma concentration versus time curve) ([4]; 10 mg/kg (i.v.), 0–∞): 5389 (0–∞) ng · h/mL
AUC (total area under the plasma concentration versus time curve) ([4]; 10 mg/kg (p.o.), 0–6 hr): 22119 (0–6 hr) ng · h/mL
AUC (total area under the plasma concentration versus time curve) ([4]; 10 mg/kg (p.o.), 0–∞): 24867 (0–∞) ng · h/mL
CL (apparent plasma clearance) ([4]; 10 mg/kg (p.o.), line of AUC 0–6 hr): 0.51 L/h/kg
CL (apparent plasma clearance) ([4]; 10 mg/kg (p.o.), line of AUC 0–∞): 0.402 L/h/kg
clearance [4, 5]: 1.9 L/h/kg
MRT [4, 5]: 24 min
clearance [4, 6]: 1.86 L/h/kg
MRT [4, 6]: 36 min
MRT ([4]; po, 10 mg/kg (p.o.), line of AUC 0–6 hr): 30 min
MRT ([4]; po, 10 mg/kg (p.o.), line of AUC 0–∞): 42 min
concentration at 15 min ([3]; 10 mg/kg): 0.618 µg/mL

Molecule: Cc1ccccc1NC(=O)Nc1cc(F)c(CC(=O)N2C[C@@H](F)C[C@H]2COc2ccc(C(=O)O)cc2)cc1F [Compound 98, 4-[1-[4-[N′-(2-methylphenyl)ureido]-2,5-difluorophenylacetyl]-(4S)-fluoro-(2S)-pyrrolidinylmethoxy]benzoic acid]
concentration at 15 min ([3]; 10 mg/kg): 2.8 µg/mL

Molecule: COc1cc(C(=O)O)ccc1C#CC1CCCN1C(=O)Cc1ccc(NC(=O)Nc2ccccc2C)c(OC)c1 (centres unmarked) [Compound 36, 3-methoxy4-[2-[1-[3-methoxy4-[N′-(2-methylphenyl)ureido]phenylacetyl]-2-pyrrolidinyl]ethynyl]benzoic acid]
melting point: 141 to 145 °C
inhibition of eosinophil infiltration (eosinophil infiltration [2]; oral dosage of 30 mg/kg): 49%

Molecule: O=C(Nc1ccc(CC(=O)N2C[C@@H](F)C[C@H]2COc2ccc(C(=O)O)cc2)cc1Cl)Nc1ccccc1Br [Compound 92, 4-[1-[4-[N′-(2-bromophenyl)ureido]-3-chlorophenylacetyl]-(4S)-fluoro-(2S)-pyrrolidinyl]methoxybenzoic acid]
% Inhibition of Eosinophil Infiltration (eosinophil infiltration [1]): 43.1%
concentration at 15 min ([3]; 10 mg/kg): 2.16 µg/mL

Molecule: Cc1ccccc1NC(=O)Nc1ccc(CC(=O)N2C[C@@H](F)C[C@H]2COc2ccc(C(=O)O)cc2)c(F)c1F [Compound 97, 4-[1-[4-[N′-(2-methylphenyl)ureido]-2,3 difluorophenylacetyl]-(4S)-fluoro-(2S)-pyrrolidinylmethoxy]benzoic acid]
concentration at 15 min ([3]; 10 mg/kg): 1.73 µg/mL

Molecule: CC(C)NCC(O)COc1ccc(CC(N)=O)cc1 (centres unmarked) [ATENOLOL, reference compound]
concentration at 5 min (in vivo): 4.06 µg/mL
concentration at 30 min (in vivo): 1.19 µg/mL
concentration at 1 hr (in vivo): 0.771 µg/mL
concentration at 2 hr (in vivo): 0.479 µg/mL
concentration at 4 hr (in vivo): 0.348 µg/mL
concentration at 8 hr (in vivo): 0.137 µg/mL

Molecule: C=CCN(CCOc1ccc(C(=O)O)cc1)C(=O)Cc1ccc(NC(=O)Nc2ccccc2Br)c(OC)c1 [Compound 311, 4-[2-N-allyl-N-[4-[N′(2-bromophenyl)ureido]-3-methoxyphenyl]acetamido]ethoxybenzoic acid]
% Inhibition of Eosinophil Infiltration (eosinophil infiltration [2]; 50 mg/kg t.i.d. × 2 days, p.o.): 42.5%
% Inhibition of Eosinophil Infiltration (eosinophil infiltration [2]; 50 mg/kg t.i.d. × 2 days, s.c., 50 mg/kg): 80.2% and 49.3%

Now from value to molecule, other results behind:

concentration at 15 min ([3]; 10 mg/kg): 0.527 µg/mL
Molecule: COc1cc(CC(=O)N2[C@H](COc3ccc(C(=O)O)cc3)CC[C@@H]2c2ccccc2)ccc1NC(=O)Nc1ccccc1Cl [Compound 146, 4-[1-[4-[N′-(2-chlorophenyl)ureido]-3-methoxyphenylacetyl]-5-(R)-phenyl-2-(S)-pyrrolidinylmethoxy]benzoic acid]

concentration at 30 min ([3]; 50 mg/kg): 2.1 µg/mL
Molecule: COc1cc(CC(=O)N(CCOc2ccc(C(=O)OC(C)C)cc2)CCN2CCOCC2)ccc1NC(=O)Nc1ccccc1C [Compound 318, isopropyl 4-[2-N-[2-(4-morpholinyl)ethyl]-N-[3-methoxy-4-[N′-(2-methylphenyl)ureido]phenyl]acetamido]ethoxybenzoate]

concentration at 15 min ([3]; 10 mg/kg): 0.669 µg/mL
Molecule: C#CCN(CCOc1ccc(C(=O)O)cc1)C(=O)Cc1ccc(NC(=O)Nc2ccccc2Cl)c(OC)c1 [Compound 309, 4-[2-N-[4-[N′-(2-chlorophenyl)ureido]-3-methoxyphenyl]-N-propargylacetamido]-ethoxybenzoic acid]

melting point: 115 to 120 °C
concentration at 15 min ([3]; 10 mg/kg): 0.428 µg/mL
Molecule: COc1cc(CC(=O)N2C3CCCCC3C[C@H]2COC2CCC(C(=O)O)CC2)ccc1NC(=O)Nc1ccccc1Br (stereo partly drawn) [Compound 179, cis-4-[-1-[4-[N′-(2-bromophenyl)ureido]-3-methoxylphenylacetyl]-(2S)-octahydroindolylmethoxy]cyclohexanecarboxylic acid]

concentration at 15 min ([3]; 50 mg/kg): 1.42 µg/mL
Molecule: C=CCN(CC=C)CCN(CCOc1ccc(C(=O)O)cc1)C(=O)Cc1ccc(NC(=O)Nc2ccccc2Cl)c(OC)c1 [Compound 323, 4-[2-N-(N′, N′-diallyl)ethyl-N-[4-[N′-(2-chlorophenyl)ureido]-3-methoxyphenylacetamido]ethoxy]benzoic acid sodium salt]

concentration at 15 min ([3]; 10 mg/kg): 0.224 µg/mL
Molecule: COc1cc(CC(=O)N2C[C@@H](OC)C[C@H]2COc2ccc(C(=O)O)cc2)ccc1NC(=O)Nc1ccccc1Br [Compound 134, 4-[(2S,4S)-1-[4-[N′-(2-bromophenyl)ureido]-3-methoxyphenylacetyl]-4-methoxy-2-pyrrolidinyl]methoxybenzoic acid]

melting point: 133 to 136 °C
concentration at 15 min ([3]; 10 mg/kg): 0.36 µg/mL
Molecule: COc1cc(CC(=O)N2C3CCCCC3C[C@H]2COc2ccc(C(=O)O)cc2)ccc1NC(=O)Nc1ccccc1Cl (stereo partly drawn) [Compound 166, 4-[1-[4-[N′-(2-chlorophenyl)ureido]-3-methoxyphenylacetyl]-(2S)-octahydroindolylmethoxy]benzoic acid]

concentration at 30 min ([3]; 50 mg/kg): 2.31 µg/mL
Molecule: COC(=O)c1ccc(OCCN(CCN2CCOCC2)C(=O)Cc2ccc(NC(=O)Nc3ccccc3C)c(OC)c2)cc1 [Compound 314, methyl 4-[2-N-[2-(4-morpholinyl)ethyl]-N-[3-methoxy-4-[N′-(2-methylphenyl)ureido]phenyl]-acetamido]ethoxybenzoate]
% Inhibition of Eosinophil Infiltration (eosinophil infiltration [2]; 50 mg/kg t.i.d. × 2 days, p.o.): 18.9%

melting point: 126 to 131 °C
concentration at 15 min ([3]; 10 mg/kg): 0.503 µg/mL
Molecule: COc1cc(CC(=O)N2C[C@@H](Cl)C[C@H]2COc2ccc(C(=O)O)cc2)ccc1NC(=O)Nc1ccccc1Cl [Compound 102, 4-[(4S)-chloro-1-[3-methoxy-4-[N′-(2-chlorophenyl)ureido]phenylacetyl]-(2S)-pyrrolidinyl]methoxybenzoic acid]
